Blank lines part the entries; values can stand above or below the molecule they belong to.
Tests used:
[1] = target: Mitogen-activated protein kinase 10 (Homo sapiens, UniProt P53779); experiment: Selectivity interaction (LanthaScreen Eu Kinase Binding Assay) EUB0001632a MAPK10; conditions: at 10 µM
[2] = target: T1, Serine/threonine-protein kinase STK11 (Homo sapiens) (UniProt Q15831); experiment: Selectivity interaction (Upstate Kinase Profiler service (Millipore)) EUB0000056c STK11; conditions: at 1 µM
T1 sequence (whole entry): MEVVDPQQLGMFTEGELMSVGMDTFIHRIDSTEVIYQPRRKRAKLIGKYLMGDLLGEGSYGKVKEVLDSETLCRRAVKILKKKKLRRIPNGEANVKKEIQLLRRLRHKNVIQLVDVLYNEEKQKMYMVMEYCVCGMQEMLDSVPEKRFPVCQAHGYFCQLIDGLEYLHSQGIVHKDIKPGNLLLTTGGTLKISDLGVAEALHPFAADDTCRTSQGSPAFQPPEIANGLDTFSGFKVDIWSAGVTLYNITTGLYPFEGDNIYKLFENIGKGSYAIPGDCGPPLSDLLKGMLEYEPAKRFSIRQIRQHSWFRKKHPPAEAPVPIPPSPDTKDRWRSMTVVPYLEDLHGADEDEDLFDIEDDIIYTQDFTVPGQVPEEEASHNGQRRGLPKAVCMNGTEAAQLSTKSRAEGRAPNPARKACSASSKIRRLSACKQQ

[3] = target: T2, Dual serine/threonine and tyrosine protein kinase (Homo sapiens) (UniProt Q6XUX3); experiment: Selectivity interaction (Ambit KINOMEscan and KiNATiv profiling in Jurkat cells) EUB0000090b DSTYK; format: cell-based; conditions: at 1 µM
T2 sequence (whole entry): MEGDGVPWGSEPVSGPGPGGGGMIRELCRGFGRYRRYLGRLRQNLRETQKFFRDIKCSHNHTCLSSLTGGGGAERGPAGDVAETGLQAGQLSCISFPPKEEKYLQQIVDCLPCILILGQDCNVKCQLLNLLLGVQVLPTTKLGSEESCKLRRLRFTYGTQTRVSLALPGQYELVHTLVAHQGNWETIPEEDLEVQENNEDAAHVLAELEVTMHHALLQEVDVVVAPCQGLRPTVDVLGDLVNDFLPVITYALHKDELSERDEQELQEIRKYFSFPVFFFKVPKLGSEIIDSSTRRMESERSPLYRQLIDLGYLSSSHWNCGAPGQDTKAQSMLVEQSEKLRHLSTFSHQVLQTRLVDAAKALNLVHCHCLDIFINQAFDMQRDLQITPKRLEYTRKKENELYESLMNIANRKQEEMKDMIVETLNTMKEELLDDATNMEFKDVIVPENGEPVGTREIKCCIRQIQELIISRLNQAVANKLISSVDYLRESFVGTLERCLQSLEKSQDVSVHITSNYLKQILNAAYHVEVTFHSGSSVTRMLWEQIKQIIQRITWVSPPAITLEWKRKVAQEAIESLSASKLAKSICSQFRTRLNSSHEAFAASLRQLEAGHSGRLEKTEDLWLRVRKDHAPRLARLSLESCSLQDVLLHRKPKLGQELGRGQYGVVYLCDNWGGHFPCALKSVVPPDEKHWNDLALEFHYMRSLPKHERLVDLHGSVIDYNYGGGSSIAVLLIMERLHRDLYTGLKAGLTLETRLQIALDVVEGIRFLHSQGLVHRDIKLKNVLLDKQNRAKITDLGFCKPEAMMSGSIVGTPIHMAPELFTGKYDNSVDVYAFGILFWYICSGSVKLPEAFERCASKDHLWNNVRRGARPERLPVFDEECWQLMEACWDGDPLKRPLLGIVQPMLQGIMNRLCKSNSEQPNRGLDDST

[4] = target: T3, Serine/threonine-protein kinase 4 (Homo sapiens) (UniProt Q13043); experiment: Selectivity interaction (Kinase panel (DSF assay)) EUB0001558a STK4
T3 sequence (whole entry): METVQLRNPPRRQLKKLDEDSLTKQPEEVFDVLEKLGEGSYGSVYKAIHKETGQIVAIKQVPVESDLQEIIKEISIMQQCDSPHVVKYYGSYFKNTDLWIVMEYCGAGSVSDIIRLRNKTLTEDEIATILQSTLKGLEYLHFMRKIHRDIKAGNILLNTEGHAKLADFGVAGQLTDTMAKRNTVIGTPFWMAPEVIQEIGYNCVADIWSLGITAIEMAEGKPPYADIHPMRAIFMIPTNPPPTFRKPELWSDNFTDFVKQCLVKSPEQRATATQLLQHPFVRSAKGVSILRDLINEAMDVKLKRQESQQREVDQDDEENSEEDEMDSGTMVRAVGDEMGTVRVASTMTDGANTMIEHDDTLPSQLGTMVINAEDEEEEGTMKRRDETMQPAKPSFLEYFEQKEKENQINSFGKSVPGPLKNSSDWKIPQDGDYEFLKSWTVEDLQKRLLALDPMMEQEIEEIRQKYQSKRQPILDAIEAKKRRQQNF

[5] = target: STE20/SPS1-related proline-alanine-rich protein kinase (Homo sapiens) (UniProt Q9UEW8); experiment: Selectivity interaction (KinomeScan (DiscoverX)) EUB0000655a STK39; conditions: at 10 µM
[6] = target: Calcium/calmodulin-dependent protein kinase kinase 1 (Homo sapiens) (UniProt Q8N5S9); experiment: Selectivity interaction (KinomeScan (DiscoverX)) EUB0000655a CAMKK1; conditions: at 10 µM
[7] = target: T4, 3-phosphoinositide-dependent protein kinase 1 (Homo sapiens) (UniProt O15530); experiment: Selectivity interaction (KinomeScan (DiscoverX)) EUB0000229b PDPK1; conditions: at 10 µM
T4 sequence (whole entry): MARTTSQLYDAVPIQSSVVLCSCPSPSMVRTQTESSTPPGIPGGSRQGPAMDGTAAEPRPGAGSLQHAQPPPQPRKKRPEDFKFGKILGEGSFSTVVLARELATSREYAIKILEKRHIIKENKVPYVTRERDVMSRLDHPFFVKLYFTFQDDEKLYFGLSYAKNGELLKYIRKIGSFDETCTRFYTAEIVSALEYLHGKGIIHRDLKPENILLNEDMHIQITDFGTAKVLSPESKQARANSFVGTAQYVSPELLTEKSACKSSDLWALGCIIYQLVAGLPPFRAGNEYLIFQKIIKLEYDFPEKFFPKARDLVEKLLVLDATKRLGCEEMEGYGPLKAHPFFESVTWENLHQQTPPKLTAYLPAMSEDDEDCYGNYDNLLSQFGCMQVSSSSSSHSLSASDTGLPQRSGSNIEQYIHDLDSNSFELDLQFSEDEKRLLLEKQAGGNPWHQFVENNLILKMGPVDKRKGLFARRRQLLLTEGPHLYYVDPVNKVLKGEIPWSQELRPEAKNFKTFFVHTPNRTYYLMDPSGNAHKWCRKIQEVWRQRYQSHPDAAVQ

Sequence of Mitogen-activated protein kinase 10 (P53779 whole entry): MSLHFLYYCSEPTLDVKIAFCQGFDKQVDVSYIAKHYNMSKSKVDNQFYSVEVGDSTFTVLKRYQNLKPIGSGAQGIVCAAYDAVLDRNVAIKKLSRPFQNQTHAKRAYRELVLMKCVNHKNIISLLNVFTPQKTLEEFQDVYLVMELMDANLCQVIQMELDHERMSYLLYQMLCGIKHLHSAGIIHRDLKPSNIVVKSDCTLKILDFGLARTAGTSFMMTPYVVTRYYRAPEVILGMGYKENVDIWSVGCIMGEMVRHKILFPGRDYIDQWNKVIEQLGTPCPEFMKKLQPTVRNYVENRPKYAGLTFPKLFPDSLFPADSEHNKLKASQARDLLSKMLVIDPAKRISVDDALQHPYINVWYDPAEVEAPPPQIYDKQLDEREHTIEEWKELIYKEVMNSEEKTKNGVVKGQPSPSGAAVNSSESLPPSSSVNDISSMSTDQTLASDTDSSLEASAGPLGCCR
Sequence of Calcium/calmodulin-dependent protein kinase kinase 1 (Homo sapiens) (Q8N5S9 whole entry, looked up): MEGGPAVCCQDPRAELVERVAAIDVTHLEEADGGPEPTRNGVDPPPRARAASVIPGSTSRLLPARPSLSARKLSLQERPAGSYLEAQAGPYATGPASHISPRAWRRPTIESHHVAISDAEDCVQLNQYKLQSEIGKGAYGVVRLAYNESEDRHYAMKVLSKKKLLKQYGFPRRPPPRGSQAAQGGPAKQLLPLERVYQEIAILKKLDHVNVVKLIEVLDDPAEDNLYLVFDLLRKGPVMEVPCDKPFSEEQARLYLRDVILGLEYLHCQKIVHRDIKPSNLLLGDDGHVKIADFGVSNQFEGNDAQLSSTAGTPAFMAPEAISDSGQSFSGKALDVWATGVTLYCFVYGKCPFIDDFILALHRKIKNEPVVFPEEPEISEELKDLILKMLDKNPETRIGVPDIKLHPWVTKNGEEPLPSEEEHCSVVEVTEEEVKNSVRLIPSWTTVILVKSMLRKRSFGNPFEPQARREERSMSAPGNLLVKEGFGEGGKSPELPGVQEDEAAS

% of inhibition [1]: -2.22%
SMILES: Cn1cc(-n2cnc3c(NCc4nc5cc(Cl)c(Cl)cc5[nH]4)nc(N4CCOCC4)nc32)cn1

% of inhibition [2]: -15%
SMILES: Cc1ccc(-c2ccc3c(ccc4sc5c(c43)NC[C@@H](C)NC5=O)n2)cn1

SMILES: CN(C)C/C=C/C(=O)Nc1ccc(C(=O)N2CCCC(Nc3ncc(Cl)c(-c4c[nH]c5ccccc45)n3)C2)cc1 (configuration not stated)
% of control [3]: 100%

SMILES: CC(C)(O)[C@H](F)CN1Cc2cc(NC(=O)c3cnn4cccnc34)c(N3CCOCC3)cc2C1=O
dTM [4]: 1.9 K

SMILES: CN(C)CCOc1ccc(-c2nc(-c3ccncc3)c(-c3ccc4c(c3)CC/C4=N\O)[nH]2)cc1
% of control [5]: 100% | % of control [6]: 99%

SMILES: COc1cc(N(C)c2ccnc3ccc(C(F)(F)F)cc23)cc(OC)c1OC
% binding [7]: 98%

Source: ChEMBL document CHEMBL5465560, “Selectivity Literature for EUbOPEN Chemogenomic Library” (2024)
